{"source": "PubChem BioAssay AID1745844", "about": "(Carcinogenic Potency Database (CPDB), 2022)", "tested_on": "rodent lifetime carcinogenesis bioassay, tumor incidence TD50", "test": "carcinogenic potency in animals, long-term in vivo studies, CPDB compilation (AID 1745844)", "note": "Values joined by “and” are separate entries in the source; they are usually repeats but may differ in a detail not shown here. Equal entries are not always repeated. Active and inactive are the calls of the source. The rule behind the calls is not given here.", "data": [{"smiles": "CCc1ccccc1", "values": [{"measurement": "TD50", "setting": "mouse, strain B6C3F1, females, inhaled, site: Harderian gland, lesion: adenoma, dosed 103 weeks, study length 104 weeks", "result": 9070, "unit": "mg/kg/day"}, {"measurement": "TD50", "setting": "mouse, strain B6C3F1, females, inhaled, site: any site (literature study), lesion: several types, types named in the paper, dosed 103 weeks, study length 104 weeks", "result": 4070, "unit": "mg/kg/day"}, {"measurement": "TD50", "setting": "mouse, strain B6C3F1, females, inhaled, site: liver, lesion: hepatocellular adenoma + hepatoblastoma + hepatocellular carcinoma, dosed 103 weeks, study length 104 weeks", "result": 1880, "unit": "mg/kg/day"}, {"measurement": "TD50", "setting": "mouse, strain B6C3F1, females, inhaled, site: liver, lesion: hepatocellular adenoma + hepatocellular carcinoma, dosed 103 weeks, study length 104 weeks", "result": 1880, "unit": "mg/kg/day"}, {"measurement": "TD50", "setting": "mouse, strain B6C3F1, females, inhaled, site: liver, lesion: hepatocellular adenoma, dosed 103 weeks, study length 104 weeks", "result": 2450, "unit": "mg/kg/day"}, {"measurement": "TD50", "setting": "mouse, strain B6C3F1, females, inhaled, site: lung, lesion: alveolar/bronchiolar adenoma + alveolar/bronchiolar carcinoma, dosed 103 weeks, study length 104 weeks", "result": 7950, "unit": "mg/kg/day"}, {"measurement": "TD50", "setting": "mouse, strain B6C3F1, males, inhaled, site: any site (literature study), lesion: several types, types named in the paper, dosed 103 weeks, study length 104 weeks", "result": 2010, "unit": "mg/kg/day"}, {"measurement": "TD50", "setting": "mouse, strain B6C3F1, males, inhaled, site: liver, lesion: hepatocellular adenoma + hepatoblastoma + hepatocellular carcinoma, dosed 103 weeks, study length 104 weeks", "result": 9310, "unit": "mg/kg/day"}, {"measurement": "TD50", "setting": "mouse, strain B6C3F1, males, inhaled, site: lung, lesion: alveolar/bronchiolar adenoma + alveolar/bronchiolar carcinoma, dosed 103 weeks, study length 104 weeks", "result": 1400, "unit": "mg/kg/day"}, {"measurement": "TD50", "setting": "mouse, strain B6C3F1, males, inhaled, site: lung, lesion: alveolar/bronchiolar adenoma, dosed 103 weeks, study length 104 weeks", "result": 1680, "unit": "mg/kg/day"}, {"measurement": "TD50", "setting": "rat, strain Fischer 344, males, inhaled, site: adrenal medulla, lesion: pheochromocytoma benign, bilateral + pheochromocytoma, benign, dosed 104 weeks, study length 104 weeks", "result": 125, "unit": "mg/kg/day"}, {"measurement": "TD50", "setting": "rat, strain Fischer 344, males, inhaled, site: adrenal medulla, lesion: pheochromocytoma benign, bilateral + pheochromocytoma, malignant + pheochromocytoma, benign, dosed 104 weeks, study length 104 weeks", "result": 106, "unit": "mg/kg/day"}, {"measurement": "TD50", "setting": "rat, strain Fischer 344, males, inhaled, site: any site (literature study), lesion: several types, types named in the paper, dosed 104 weeks, study length 104 weeks", "result": 53, "unit": "mg/kg/day"}, {"measurement": "TD50", "setting": "rat, strain Fischer 344, males, inhaled, site: kidney + testis, lesion: tubule adenoma + tubule carcinoma + interstitial-cell adenoma, bilateral + interstitial-cell adenoma, dosed 104 weeks, study length 104 weeks", "result": 24.6, "unit": "mg/kg/day"}, {"measurement": "TD50", "setting": "rat, strain Fischer 344, males, inhaled, site: kidney, lesion: tubule adenoma + tubule carcinoma, dosed 104 weeks, study length 104 weeks", "result": "147 mg/kg/day and 255 mg/kg/day"}, {"measurement": "TD50", "setting": "rat, strain Fischer 344, males, inhaled, site: kidney, lesion: tubule adenoma, dosed 104 weeks, study length 104 weeks", "result": "232 mg/kg/day and 280 mg/kg/day"}, {"measurement": "TD50", "setting": "rat, strain Fischer 344, males, inhaled, site: testis, lesion: interstitial-cell adenoma, bilateral + interstitial-cell adenoma, dosed 104 weeks, study length 104 weeks", "result": 24.8, "unit": "mg/kg/day"}, {"measurement": "TD50", "setting": "rat, strain Fischer 344, males, inhaled, site: testis, lesion: interstitial-cell adenoma, bilateral, dosed 104 weeks, study length 104 weeks", "result": 23.1, "unit": "mg/kg/day"}, {"measurement": "TD50", "setting": "rat, strain Sprague-Dawley, females, by gavage, site: any site (literature study), lesion: malignant tumor, dosed 104 weeks, study length 123 weeks", "result": 1610, "unit": "mg/kg/day"}, {"measurement": "TD50", "setting": "rat, strain Sprague-Dawley, females, by gavage, site: any site (literature study), lesion: malignant tumor, dosed 104 weeks, study length 141 weeks", "result": 1210, "unit": "mg/kg/day"}, {"measurement": "TD50", "setting": "rat, strain Sprague-Dawley, females, by gavage, site: any site (literature study), lesion: several types, types named in the paper, dosed 104 weeks, study length 141 weeks", "result": 635, "unit": "mg/kg/day"}, {"measurement": "TD50", "setting": "rat, strain Sprague-Dawley, females, by gavage, site: head, lesion: carcinoma, dosed 104 weeks, study length 123 weeks", "result": 4170, "unit": "mg/kg/day"}, {"measurement": "TD50", "setting": "rat, strain Sprague-Dawley, females, by gavage, site: nasal cavity, lesion: carcinoma, dosed 104 weeks, study length 123 weeks", "result": 18300, "unit": "mg/kg/day"}, {"measurement": "TD50", "setting": "rat, strain Sprague-Dawley, females, by gavage, site: nasal cavity, lesion: esthesioneuroepithelioma, dosed 104 weeks, study length 123 weeks", "result": 18300, "unit": "mg/kg/day"}, {"measurement": "TD50", "setting": "rat, strain Sprague-Dawley, females, by gavage, site: oral cavity, lesion: carcinoma, dosed 104 weeks, study length 123 weeks", "result": 8890, "unit": "mg/kg/day"}, {"measurement": "TD50", "setting": "rat, strain Sprague-Dawley, males, by gavage, site: any site (literature study), lesion: malignant tumor, dosed 104 weeks, study length 141 weeks", "result": 1980, "unit": "mg/kg/day"}, {"measurement": "TD50", "setting": "rat, strain Sprague-Dawley, males, by gavage, site: any site (literature study), lesion: several types, types named in the paper, dosed 104 weeks, study length 141 weeks", "result": 1160, "unit": "mg/kg/day"}, {"measurement": "TD50", "setting": "rat, strain Sprague-Dawley, males, by gavage, site: ear duct, lesion: carcinoma, dosed 104 weeks, study length 123 weeks", "result": 18300, "unit": "mg/kg/day"}, {"measurement": "TD50", "setting": "rat, strain Sprague-Dawley, males, by gavage, site: head, lesion: carcinoma, dosed 104 weeks, study length 123 weeks", "result": 4350, "unit": "mg/kg/day"}, {"measurement": "TD50", "setting": "rat, strain Sprague-Dawley, males, by gavage, site: nasal cavity, lesion: esthesioneuroepithelioma, dosed 104 weeks, study length 123 weeks", "result": 5990, "unit": "mg/kg/day"}, {"measurement": "TD50", "setting": "rat, strain Sprague-Dawley, males, by gavage, site: oral cavity, lesion: carcinoma, dosed 104 weeks, study length 123 weeks", "result": 18300, "unit": "mg/kg/day"}]}, {"smiles": "O=[N+]([O-])c1ccc2nc[nH]c2c1", "values": [{"measurement": "TD50", "setting": "mouse, strain B6C3F1, females, in feed, site: any site (literature study), lesion: several types, types named in the paper, dosed 78 weeks, study length 95 weeks", "result": 429, "unit": "mg/kg/day"}, {"measurement": "TD50", "setting": "mouse, strain B6C3F1, females, in feed, site: liver, lesion: hepatocellular adenoma + hepatocellular carcinoma + neoplastic nodule, dosed 78 weeks, study length 95 weeks", "result": 354, "unit": "mg/kg/day"}, {"measurement": "TD50", "setting": "mouse, strain B6C3F1, females, in feed, site: liver, lesion: hepatocellular adenoma + hepatocellular carcinoma, dosed 78 weeks, study length 95 weeks", "result": 354, "unit": "mg/kg/day"}, {"measurement": "TD50", "setting": "mouse, strain B6C3F1, females, in feed, site: liver, lesion: hepatocellular carcinoma, dosed 78 weeks, study length 95 weeks", "result": 762, "unit": "mg/kg/day"}, {"measurement": "TD50", "setting": "mouse, strain B6C3F1, females, in feed, site: pituitary gland, lesion: adenoma, NOS + chromophobe adenoma, dosed 78 weeks, study length 95 weeks", "result": 335, "unit": "mg/kg/day"}, {"measurement": "TD50", "setting": "mouse, strain B6C3F1, males, in feed, site: any site (literature study), lesion: several types, types named in the paper, dosed 78 weeks, study length 95 weeks", "result": 1980, "unit": "mg/kg/day"}, {"measurement": "TD50", "setting": "mouse, strain B6C3F1, males, in feed, site: liver, lesion: hepatocellular adenoma + hepatocellular carcinoma + neoplastic nodule, dosed 78 weeks, study length 95 weeks", "result": 392, "unit": "mg/kg/day"}, {"measurement": "TD50", "setting": "mouse, strain B6C3F1, males, in feed, site: liver, lesion: hepatocellular adenoma + hepatocellular carcinoma, dosed 78 weeks, study length 95 weeks", "result": 392, "unit": "mg/kg/day"}, {"measurement": "TD50", "setting": "mouse, strain B6C3F1, males, in feed, site: liver, lesion: hepatocellular carcinoma, dosed 78 weeks, study length 95 weeks", "result": 423, "unit": "mg/kg/day"}, {"measurement": "carcinogen call", "setting": "rat, strain Fischer 344, females, in feed, site: any site (literature study), lesion: several types, types named in the paper, dosed 78 weeks, study length 105 weeks", "result": "negative (inactive)"}, {"measurement": "carcinogen call", "setting": "rat, strain Fischer 344, males, in feed, site: any site (literature study), lesion: several types, types named in the paper, dosed 78 weeks, study length 105 weeks", "result": "negative (inactive)"}, {"measurement": "TD50", "setting": "rat, strain Fischer 344, males, in feed, site: liver, lesion: hepatocellular adenoma + hepatocellular carcinoma + neoplastic nodule, dosed 78 weeks, study length 105 weeks", "result": 8830, "unit": "mg/kg/day"}]}, {"smiles": "CCCCCCCCCCCC[N+](C)(C)[O-]", "values": [{"measurement": "carcinogen call", "setting": "rat, strain Fischer 344, females, in drinking water, site: liver, lesion: neoplastic nodule, dosed 93 weeks, study length 128 weeks", "result": "negative (inactive)"}, {"measurement": "TD50", "setting": "rat, strain Fischer 344, males, in drinking water, site: liver, lesion: hepatocellular carcinoma, dosed 93 weeks, study length 128 weeks", "result": "519 mg/kg/day (inactive)"}, {"measurement": "TD50", "setting": "rat, strain Fischer 344, males, in drinking water, site: liver, lesion: neoplastic nodule, dosed 93 weeks, study length 128 weeks", "result": "496 mg/kg/day (inactive)"}, {"measurement": "TD50", "setting": "rat, strain Fischer 344, males, in drinking water, site: liver, lesion: several types, types named in the paper, dosed 93 weeks, study length 128 weeks", "result": "231 mg/kg/day (inactive)"}]}, {"smiles": "COS(C)(=O)=O", "values": [{"measurement": "TD50", "setting": "mouse, strain RF, males, in drinking water, site: liver, lesion: one or several types, types not named, dosed 104 weeks, study length 104 weeks", "result": "3980 mg/kg/day (inactive)"}, {"measurement": "TD50", "setting": "mouse, strain RF, males, in drinking water, site: lung, lesion: adenoma, dosed 104 weeks, study length 104 weeks", "result": 31.8, "unit": "mg/kg/day"}, {"measurement": "TD50", "setting": "mouse, strain RF, males, in drinking water, site: thymus gland, lesion: lymphoma, dosed 104 weeks, study length 104 weeks", "result": 185, "unit": "mg/kg/day"}]}]}
